Measurements taken from patent publication US20190298702A1, “COMPOSITIONS AND METHODS FOR TREATING PRURITUS” (priority 2018, published 2019).
Where a name gives a salt, the structure may show the parent alone. Read-outs that look alike come from different tables or passages of the source.

Key:
[1] = Adverse signs and mortality after SC administration of SDE; type: in vivo, mouse; conditions: SC at 10 mL/kg
Description: (§1) Compared to the placebo control group, SDE (administered SC at 10 mL/kg) was associated with significant reduction of substance P-induced scratching behaviors at 4 hours (18.8±11.8 bouts) and 12 hours (24.5±4.1 bouts) post treatment. […] However, SC administration of SDE would cause high concentration of nalbuphine in the circulation and induce serious adverse effects.

[2] = Ex vivo skin drug permeation and penetration, MedFlux-HT diffusion cell system; type: in vitro ADME, human
Description: The ten formulations listed in Table 7 were used to evaluate the penetration of drug into human skin using the MedFlux-HT™ diffusion cell system. In this study, human skins with about 500±50 μm thickness were fixed on the MedFlux-HT diffusion cell system. About 10 mg of test formulation was applied to the epidermal side of the human skin, and a continued flow of receiver fluid was place at the opposite side of the skin. Because SDE is rapidly converted into nalbuphine by the esterases in the biological environment, both nalbuphine and SDE concentration were measured to access the drug permeation status. The concentration of nalbuphine and SDE in receiver fluid indicated the amount of drug that had penetrated through the human skin.
Tissue levels of SDE and nalbuphine in the dermis and epidermis, and the amount of SDE and nalbuphine in the receiver fluids over 24 hours were determined and are shown in FIG. 1A and FIG. 1B. SDE and nalbuphine were both detected in receiver fluid, dermis, and epidermis. The cumulative amounts of SDE and nalbuphine in receiver fluid recovered at 24 hours were 89-1978 ng/cm^2 and 169-978 ng/cm^2, respectively.
These formulations were used to evaluate the penetration of drug into human skin using the MedFlux-HT™ diffusion cell system according to Example 8.

[3] = system: substance P-induced scratching; assay: Mouse substance P-induced scratching model, subcutaneous SDE; type: in vivo; conditions: for substance P-induced scratching bouts: SC, 75 mg/mL oily formulation at 10 mL/kg, 30-minute observation
Description: The time-course and antipruritic effects of SDE via subcutaneous (SC) injection were studied in the mouse substance P-induced scratching model to evaluate the effect of SDE's antipruritic effect. In this study, SDE was dissolved in an oily formulation, with a concentration at 75 mg/mL.
Substance P, the endogenous ligand for the neurokinin-1 (NK-1) receptor, is a significant mediator of pruritus. […] Intradermal injection of substance P elicits an itch sensation in human subjects, and an associated itch response in mice.
as §1

[4] = type: physicochemical
Description: Individual excipients were investigated to determine their compatibility with SDE (at 50° C. for 2 and 4 weeks) for potential use in a topical formulation.

[5] = Whole blood concentration of nalbuphine after the scratching observation; type: in vivo; conditions: ICR, mouse, subcutaneous, 30 mg/kg, SC at 0.5 hour, read-out: effective systemic concentration of nalbuphine (whole blood)
Description: Immediately after the scratching observation of Example 11, whole blood was collected from each mouse via the vena cava, and the nalbuphine concentration in each sample was determined.
Immediately after the scratching observation of Example 14, whole blood was collected from each mouse via the vena cava, and the nalbuphine concentration in each sample was determined.

[6] = system: substance P-induced scratching; assay: Mouse substance P-induced scratching model, topical application; type: in vivo; conditions: 30 mg/kg, SC, 0.5 hour post treatment
Description: Groups of 10 or 20 male ICR mice weighing 23±3 grams were used. One day before testing, hair was removed at the substance P injection sites. […] Substance P (250 nmol/site) was injected intradermally (ID) in a volume of 50 μL/site into the rostral portion of the back (the same region as test compound application). As reference, nalbuphine HCl was injected subcutaneously on the lower back region (different site as Substance P challenge). The scratching behavior was recorded for 30 minutes by visual observation immediately after substance P injection.
The time-course and antipruritic effects of the Ointment formulations via topical application were investigated in the mouse substance P-induced scratching model according to Example 11. On the testing day, the tested formulations (TA-1, TA-2, TA-3, and TA-4) were applied topically on the rostral portion of the back (2×2 cm region) at 4 hours prior to substance P challenge. 15 male ICR mice were used for each group. As reference, nalbuphine HCl was injected subcutaneously on the lower back region (different site as Substance P challenge). The scratching behavior was recorded for 30 minutes by visual observation immediately after substance P injection.

[7] = four ointment formulations of Table 13

O=C(CCCCCCCCC(=O)Oc1ccc2c3c1O[C@H]1[C@@H](O)CC[C@@]4(O)[C@@H](C2)N(CC2CCC2)CC[C@]314)Oc1ccc2c3c1O[C@H]1[C@@H](O)CC[C@@]4(O)[C@@H](C2)N(CC2CCC2)CC[C@]314 [SDE, Sebacoyl Dinalbuphine Ester]
adverse signs observed [1]: signs of depression, tremor and hypothermia | mortality rate ([1]; 24 hours): 7.7% | mortality rate ([1]; 48 hours): 35.7% | concentration of SDE in receiver fluid versus concentration of nalbuphine [2, 7]: comparable | concentrations of SDE in dermis and epidermis versus concentrations of nalbuphine [2, 7]: much greater | concentration of SDE in receiver fluid versus concentration of nalbuphine ([2]; ten formulations of Table 7): comparable | concentrations of SDE in dermis and epidermis versus concentrations of nalbuphine ([2]; ten formulations of Table 7): 10 fold | suppressive effect on scratching responses ([3]; SC at 10 mL/kg, 24 hours): 45% | attenuation of scratching responses ([3]; SC at 10 mL/kg, 48 hours): loss of activity | substance P-induced scratching bouts ([3]; 4 hours post treatment): 18.8±11.8 bouts | substance P-induced scratching bouts ([3]; 12 hours post treatment): 24.5±4.1 bouts | SDE degradation ([4]; combination of BHT with Transcutol P compared to Transcutol P alone, 50° C.): reduce the degree of SDE degradation | SDE purity (%) ([4]; in Castor oil, 50° C., 2 weeks): 80.20% | SDE purity (%) ([4]; in Castor oil, 50° C., 4 weeks): 75.71% | SDE purity (%) ([4]; in Castor oil, T = 0): 100.00% | SDE purity (%) ([4]; in Diisopropyl adipate, 50° C., 2 weeks): 99.60% | SDE purity (%) ([4]; in Diisopropyl adipate, 50° C., 4 weeks): 99.49% | SDE purity (%) ([4]; in Diisopropyl adipate, T = 0): 100.00% | SDE purity (%) ([4]; in Isopropyl myristate (IPM), 50° C., 2 weeks): 99.51% | SDE purity (%) ([4]; in Isopropyl myristate (IPM), 50° C., 4 weeks): 85.75% | SDE purity (%) ([4]; in Isopropyl myristate (IPM), T = 0): 100.00% | SDE purity (%) ([4]; in Miglyol 810 (Caprylic/Capric triglyceride), 50° C., 2 weeks): 99.66% | SDE purity (%) ([4]; in Miglyol 810 (Caprylic/Capric triglyceride), 50° C., 4 weeks): 99.69% | SDE purity (%) ([4]; in Miglyol 810 (Caprylic/Capric triglyceride), T = 0): 100.00% | SDE purity (%) ([4]; in PEG 400 (pH 4-5) + BHT, 50° C., 2 weeks): 96.38% | SDE purity (%) ([4]; in PEG 400 (pH 4-5) + BHT, 50° C., 4 weeks): 93.24% | SDE purity (%) ([4]; in PEG 400 (pH 4-5) + BHT, T = 0): 98.31% | SDE purity (%) ([4]; in PEG 400 (pH 4-5), 50° C., 2 weeks): 94.01% | SDE purity (%) ([4]; in PEG 400 (pH 4-5), 50° C., 4 weeks): 96.97% | SDE purity (%) ([4]; in PEG 400 (pH 4-5), T = 0): 100.00% | SDE purity (%) ([4]; in Super refined PEG 400 (pH 4-5), 50° C., 2 weeks): 93.17% | SDE purity (%) ([4]; in Super refined PEG 400 (pH 4-5), 50° C., 4 weeks): 92.23% | SDE purity (%) ([4]; in Super refined PEG 400 (pH 4-5), T = 0): 100.00% | SDE purity (%) ([4]; in Transcutol P + BHT, 50° C., 2 weeks): 14.65% | SDE purity (%) ([4]; in Transcutol P + BHT, 50° C., 4 weeks): 4.21% | SDE purity (%) ([4]; in Transcutol P + BHT, T = 0): 96.90% | SDE purity (%) ([4]; in Transcutol P, 50° C., 2 weeks): 5.69% | SDE purity (%) ([4]; in Transcutol P, 50° C., 4 weeks): 1.50% | SDE purity (%) ([4]; in Transcutol P, T = 0): 94.31% | change of SDE purity ([4]; in deionized water (at both pH 4 and 5) and Transcutol P, 50° C. for 2 and 4 weeks): Significant reductions | SDE purity (%) ([4]; in water (pH 4), 50° C., 2 weeks): 28.91% | SDE purity (%) ([4]; in water (pH 4), 50° C., 4 weeks): 14.47% | SDE purity (%) ([4]; in water (pH 4), T = 0): 96.61% | SDE purity (%) ([4]; in water (pH 5), 50° C., 2 weeks): 28.74% | SDE purity (%) ([4]; in water (pH 5), 50° C., 4 weeks): 5.43% | SDE purity (%) ([4]; in water (pH 5), T = 0): 96.83%

Oc1ccc2c3c1O[C@H]1[C@@H](O)CC[C@@]4(O)[C@@H](C2)N(CC2CCC2)CC[C@]314 [nalbuphine HCl]
concentration at 0.5 h [5]: ~207 ng/mL | substance P-evoked scratching behaviors ([6]; versus respective control (Example 11)): significantly reduced | substance P-evoked scratching behaviors ([6]; versus respective control (Example 14)): significantly reduced
